From patent EP4595966A1, “USE OF NPY/Y5R INHIBITOR IN TREATING LIVER METASTASIS” (Friedrich-Alexander-Universität Erlangen-Nürnberg, priority 2024, dated 2025) come the findings set out here.

Data set [1] has as its system human melanoma cells (SkMel28). Put plainly: Clonogenicity assays (two- and three-dimensional colony formation), human melanoma cells. The class given is cell-based. Particulars: human (metastatic) melanoma cells. The text has this:
(§1) • Figure 1 A-B. Boyden chamber analysis and representative images (10-fold original magnification) of chemotaxis of human melanoma cells (SkMel28) towards recombinant NPY (lower chamber) with or without application of Y5R specific inhibitor CGP71683 (Y5Ri) (upper chamber) compared to migration towards serum free medium (n = 9). Arrowheads indicate migrated cells. • Figure 2. Representative images of colony number and colony size of human melanoma cells (SkMel28) in clonogenicity assays with application of increasing concentrations of Y5R inhibitor (Y5Ri) (n = 3). • Figure 3. Schematic illustration of the experimental procedure: splenic injection of murine melanoma cells (B16) in C57BL/6 mice on day 0; intraperitoneal injection of Y5R inhibitor CGP71683 (Y5Ri) (15 mg/kg body weight per injection) or solvent only (DMSO) as control on indicated days; end of experiment eight days after cell implantation. • Figure 4. Explanted metastases bearing spleens and livers of DMSO (control) and Y5Ri treated mice after splenic injection of B16 melanoma cells. • Figure 5. Macroscopic classification of livers from DMSO (n = 11) and Y5Ri treated mice (n = 9) into very low / low versus moderate / high liver metastasis. • Figure 6. A. CHK2 level in NPY^-/- mice compared to control WT mice measured by IHC analysis. B. CHK2 level in Y5Ri-treated mice compared to control DMSO-treated mice measured by IHC analysis. • Figure 7. […] A. Quantification of NPY mRNA expression levels in liver tissues from mice treated with control LNPs ("Control", LNPs bearing control siRNA pool, n = 11) and from mice treated with LNPs bearing siRNA pool targeting murine NPY ("LNP-siNPY", n = 11). B. Quantification of NPY protein levels in liver tissues from mice treated with control LNPs (n = 11) and LNP-siNPY treated mice (n = 11). • Figure 9 A-B. ELISA based protein expression analysis of absolute NPY levels in liver tissues and serum samples from LNP-siNPY treated mice (n = 10) compared to mice treated with control LNPs (LNPs bearing control siRNA pool, n = 11) after splenic melanoma cell injection. • Figure 10. […] A. Quantification of number of metastases in liver tissues from LNP-siNPY treated mice (n = 10) compared to mice treated with control LNPs (LNPs bearing control siRNA pool, n = 11). B. Quantification of metastases size in liver tissues from LNP-siNPY treated mice (n = 10) compared to mice treated with control LNPs (LNPs bearing control siRNA pool, n = 11). • Figure 13. […] A. Quantification of pERK protein expression in metastatic liver tissue samples of LNP-siNPY treated mice (n = 6) compared to mice treated with control LNPs (LNPs bearing control siRNA pool, n = 6). […]

Data set [2] deals with CRC, PC and BC cell lines. Put plainly: Clonogenicity assays, CRC, PC and BC cell lines. The class given is cell-based. The text has this: (§2) Normal human epidermal melanocytes (NHEM), the human primary melanoma cell lines Mel Juso, Mel Ei, Mel Wei and metastatic human melanoma cell lines SkMel28 (ATCC CRL-1469™), Mel Im, Mel Ju, SkMel3 (ATCC HTB-69™) were described previously (Jacob et al., 1998; Heimerl et al., 2007). Primary human hepatocytes (PHH) were isolated and cultured as described elsewhere (Dietrich et al., 2017; Lee et al., 2013). In addition, the human breast cancer cell line MCF-7 (ATCC HTB-22™), the human pancreatic cancer cell line Panc-1 (ATCC CRL-1469™) and the human colon cancer cell lines HT29 (ATCC HTB-38™), Caco-2 (ATCC HTB-37™) and LoVo (ATCC CCL-229™) were used. The murine melanoma cell line B16 (ATCC CRL-6475™) was used for in vitro and in vivo studies. Furthermore, the murine pancreatic cancer cell line KPC and the murine colon cancer cell lines MC38 and CT26 (ATCC CRL-2638™) were used. Table 4. Summary and additional information of human and murine cell lines. BC: Breast cancer. CRC: Colorectal cancer. Hetero: Heterozygous genotype. Homo: Homozygous genotype. MET: Metastatic melanoma cell line. MM: Malignant melanoma. Nd: not determined / missing. PC: Pancreatic cancer. PT: Primary tumor melanoma cell line. Peri-tumor: Tumor-surrounding liver tissue. IR: immunoreactivity (score).
As described previously (Dietrich et al., 2017), clonogenic assays were performed to analyze stem cell behavior, attachment dependent colony formation and growth of cancer cells.
Anchorage independent colony formation and growth of cancer cells were analyzed using soft agar colony formation assays as described previously (Borowicz et al., 2014). Treatment with specific agonists and antagonists started 24 h after tumor cell seeding. Treatment was repeated after five and nine days. Microscopic analysis of the obtained colonies was conducted 14 days after tumor cell seeding.

The subject of data set [3] is CRC, PC and BC cell lines. Briefly: Boyden chamber NPY-mediated chemotactic migration, CRC, PC and BC cell lines. In kind it is cell-based.
Text: as §2
As described previously (Dietrich et al., 2017), Boyden chamber assays were used in order to analyze cell migration. Boyden chamber filters were additionally coated with Matrigel to analyze cell invasion.

The test system of data set [4] is human melanoma cells (SkMel28). Briefly: Boyden chamber chemotactic migration, human melanoma cells. In kind it is cell-based. To be noted: for NPY-induced chemotactic migration: melanoma cells, migration towards recombinant NPY, co-treatment with the substance.
Text: as §1

Data set [5] has as its system B16 melanoma cells (liver metastasis). Put plainly: Spleen-liver metastasis model with Y5R inhibitor treatment. The class given is in vivo, C57BL/6 mice. An excerpt:
• Figure 1 A-B. Boyden chamber analysis and representative images (10-fold original magnification) of chemotaxis of human melanoma cells (SkMel28) towards recombinant NPY (lower chamber) with or without application of Y5R specific inhibitor CGP71683 (Y5Ri) (upper chamber) compared to migration towards serum free medium (n = 9). Arrowheads indicate migrated cells. • Figure 2. Representative images of colony number and colony size of human melanoma cells (SkMel28) in clonogenicity assays with application of increasing concentrations of Y5R inhibitor (Y5Ri) (n = 3). • Figure 3. Schematic illustration of the experimental procedure: splenic injection of murine melanoma cells (B16) in C57BL/6 mice on day 0; intraperitoneal injection of Y5R inhibitor CGP71683 (Y5Ri) (15 mg/kg body weight per injection) or solvent only (DMSO) as control on indicated days; end of experiment eight days after cell implantation. • Figure 4. Explanted metastases bearing spleens and livers of DMSO (control) and Y5Ri treated mice after splenic injection of B16 melanoma cells. • Figure 5. Macroscopic classification of livers from DMSO (n = 11) and Y5Ri treated mice (n = 9) into very low / low versus moderate / high liver metastasis. • Figure 6. A. CHK2 level in NPY^-/- mice compared to control WT mice measured by IHC analysis. B. CHK2 level in Y5Ri-treated mice compared to control DMSO-treated mice measured by IHC analysis. • Figure 7. Schematic illustration of the experimental procedure: pre-treatment of C57BL/6 mice with lipid nanoparticles (LNP) bearing control siRNA pool or siNPY pool (pool of siRNAs targeting murine NPY) one day before surgery (day -1); splenic injection of murine melanoma cells (B16) on day 0; intraperitoneal injection of LNPs with control siRNA pool or siNPY pool as indicated; end of experiment six days after cell implantation. • Figure 8. A. Quantification of NPY mRNA expression levels in liver tissues from mice treated with control LNPs ("Control", LNPs bearing control siRNA pool, n = 11) and from mice treated with LNPs bearing siRNA pool targeting murine NPY ("LNP-siNPY", n = 11). B. Quantification of NPY protein levels in liver tissues from mice treated with control LNPs (n = 11) and LNP-siNPY treated mice (n = 11). • Figure 9 A-B. ELISA based protein expression analysis of absolute NPY levels in liver tissues and serum samples from LNP-siNPY treated mice (n = 10) compared to mice treated with control LNPs (LNPs bearing control siRNA pool, n = 11) after splenic melanoma cell injection. • Figure 10. […] A. Quantification of number of metastases in liver tissues from LNP-siNPY treated mice (n = 10) compared to mice treated with control LNPs (LNPs bearing control siRNA pool, n = 11). B. Quantification of metastases size in liver tissues from LNP-siNPY treated mice (n = 10) compared to mice treated with control LNPs (LNPs bearing control siRNA pool, n = 11). • Figure 13. […] A. Quantification of pERK protein expression in metastatic liver tissue samples of LNP-siNPY treated mice (n = 6) compared to mice treated with control LNPs (LNPs bearing control siRNA pool, n = 6). B. Quantification of pCHK2 protein expression in metastatic liver tissue samples of LNP-siNPY treated mice (n = 6) compared to samples from control treatment (control siPool bearing LNPs) (n = 6). • Figure 15. […]

The subject of a further data set is metastatic CRC organoids. Put plainly: Ki67 expression in metastatic CRC organoids. In kind it is cell-based, murine. Particulars: vs controls. The procedure:
Murine APTAK organoids were used for in vitro and in vivo experiments. These APTAK tumor organoids are deficient in Apc, Tp53, Tgfbr2 and express constitutively activated Kras and activated Akt1. Organoids were generated and CRC models were conducted in a similar way as previously described (Heichler et al., 2020). In an orthotopic mouse model for CRC and CRC (liver) metastasis, single cell suspensions from genetically engineered APTAK organoids were injected into the submucosa of wildtype mice.
Immunohistochemistry (IHC) and immunofluorescence analyses were performed using tissue microarrays consisting of human cancer tissue samples and mouse paraffin-embedded tissue sections as described previously (Dietrich et al., 2017; Dietrich et al., 2020). […] For each antibody, immunohistochemistry staining was evaluated semi-quantitatively and scores were calculated as described previously (Dietrich et al., 2017; Dietrich et al., 2020).

The test system of the next data set is pCHK2. Briefly: pCHK2 levels in melanoma cells in vitro. To be noted: (metastatic) melanoma cells in vitro. The class given is cell-based. The procedure:
As described in detail in previous studies (Dietrich et al., 2017), Western blots and densitometric quantification were performed using the following primary antibodies: anti-β-actin antibody (catalog no. A1978, Sigma-Aldrich; 1 in 5,000 dilution), anti-phospho-ERK antibody (catalog no. #9101, Cell Signaling, Frankfurt am Main, Germany; 1 in 4,000 dilution), anti-ERK antibody (catalog no. #9102, Cell Signaling; 1 in 1,000 dilution), anti-phospho-AKT antibody (catalog no. #9271, Cell Signaling, Frankfurt am Main, Germany; 1 in 2000 dilution), anti-AKT (catalog no. #9272, Cell Signaling, Frankfurt am Main, Germany; 1 in 2000 dilution), anti-Y5R antibody (catalog no. ab133757, Abcam; 1 in 30,000 dilution), anti-phospho-Chk2 antibody (catalog no. #2661, Cell Signaling, Frankfurt am Main, Germany; 1 in 1000 dilution), anti-phospho-p53 antibody (catalog no. #9284, Cell Signaling, Frankfurt am Main, Germany; 1 in 1000 dilution).

As for `N=C(N)NCCC[C@H](NC(=O)CC1(CC(=O)N2CCN(C3c4ccccc4NC(=O)c4ccccc43)CC2)CCCC1)C(=O)NCCn1c(=O)n(-c2ccccc2)n(-c2ccccc2)c1=O` (stereo partly drawn) [Y2Ri], the clonogenicity entry in data set [1] was “not affected”; in data set [2] (CRC cells), “did not affect”; in data set [2] (PC and BC cell lines), “did not affect clonogenicity”. The NPY-mediated chemotactic migration result was “did not affect” in data set [3] (CRC cells); “not affected” in data set [3] (PC and BC cell lines). Moreover, the NPY-induced chemotactic migration entry in data set [4] is on record as “not altered”.

With `CC(=O)O[C@H]1[C@H]2O[C@]23[C@@H]2CC[C@@H]4C[C@@H](O)CC[C@]4(C)[C@H]2CC[C@]3(C)[C@H]1c1ccc(=O)oc1` [Cinobufagin], in data set [1], the clonogenicity result is “strongly reduced clonogenicity”.

Regarding `Nc1nc(NC[C@H]2CC[C@H](CNS(=O)(=O)c3cccc4ccccc34)CC2)nc2ccccc12` [Y5Ri, N-[[trans-4-[[(4-amino-2-quinazolinyl)amino]methyl]cyclohexyl]methyl]-1-naphthalenesulfonamide], the liver transaminases entry in data set [5] (mice, 15 mg/kg i.p. every 24 h) is “did not affect”. Further, in data set [5] (mice, IHC), the “cleaved caspase 3 expression in liver metastatic cells” value is reported as “only slightly, however not significantly, enhanced”. In addition, the liver metastasis entry in data set [5] (splenic injection of B16 cells, 15 mg/kg i.p. every 24 h, vs vehicle control) was “significantly reduced liver metastasis”. The “pCHK2 in liver metastasis” value in data set [5] (treated mice vs controls, IHC (Figure 6B)) is recorded as “significant induction”. For the same molecule, in data set [5] (treated vs control-treated mice, IHC), the “Ki67 expression in liver metastasis” value is “significantly reduced”. Besides, the clonogenicity entry in data set [1] is recorded as “strongly reduced clonogenicity”; in data set [2] (CRC, PC and BC cell lines), “confirmed”. Moreover, in the data set on metastatic CRC organoids, the Ki67 expression entry is reported as “significantly reduced Ki67 expression”. In addition, the pCHK2 levels entry with pCHK2 is listed as “induced pCHK2”. Moreover, the “chemotactic migration induced by hepatocyte-derived, NPY-containing supernatants or by liver lysates from wildtype mice” value in data set [4] (concomitant Y5R-inhibition) is on record as “significantly reduced”. Also, the NPY-induced chemotactic migration entry in data set [4] was “antagonized NPY-induced chemotactic migration”.

For the molecule `NC(=O)NCc1ccc(CNC(=O)[C@@H](CCCN=C(N)N)NC(=O)C(c2ccccc2)c2ccccc2)cc1` [Y1Ri], the clonogenicity result was “not affected” in data set [1]; “did not affect” in data set [2] (CRC cells); “did not affect clonogenicity” in data set [2] (PC and BC cell lines). Moreover, the NPY-mediated chemotactic migration result in data set [3] (CRC cells) is “did not affect”; in data set [3] (PC and BC cell lines) it was “sufficient to reduce NPY-mediated chemotactic migration”. Also, in data set [4], the NPY-induced chemotactic migration result was “not altered”.
